Measurements published in article PMC8999625, “Antiviral Effects of ABMA and DABMA against Influenza Virus In Vitro and In Vivo via Regulating the Endolysosomal Pathway and Autophagy” (International Journal of Molecular Sciences, 2022).
“Also recorded” adds a separate entry of the source. Counter-ions that a name gives are not always drawn.

System: A/HK/2671/2019 (H3N2)
Format: cell-based, influenza virus
Details: not given

| SMILES | antiviral activity against A/HK/2671/2019 (H3N2) |
| --- | --- |
| NC12CC3CC(CC(C3)C1)C2 [Amantadine, Amantadine hydrochloride] | did not show antiviral activity; also recorded: no significant protection |

Same assay, conditions: read-out: EC50 ± SD A/HK/2671/2019 (H3N2)

| SMILES | EC50 |
| --- | --- |
| COc1ccc(Br)cc1CNC12CC3CC(CC(C3)C1)C2 [ABMA, 1-adamantyl (5-bromo-2-methoxybenzyl) amine] | 2830 ± 260 nM |
| NC12CC3CC(CC(C3)C1)C2 [Amantadine, Amantadine hydrochloride] | > 100000 nM |
| COc1ccc(Br)cc1CNC12CC3CC(C)(CC(C)(C3)C1)C2 [DABMA, 1,3-dimethyl-1-adamantyl (5-bromo-2-methoxybenzyl) amine] | 2950 ± 270 nM |
| CCOC(=O)C1=C[C@@H](OC(CC)CC)[C@H](NC(C)=O)[C@@H](N)C1 [Oseltamivir, Oseltamivir phosphate] | 1790 ± 640 nM |
| NC(=O)c1ncn([C@@H]2O[C@H](CO)[C@@H](O)[C@H]2O)n1 [Ribavirin, ribavirin] | 19800 ± 3260 nM |
